Reference: patent publication US7704995B2 (Exelixis, Inc., priority 2003, dated 2010)
Where two headings read alike, the source gives them in different places.

Biological target: T1, Chk1 (Homo sapiens, UniProt O14757)
T1 construct: purchased Upstate Biotechnology
T1 sequence (O14757 1-476): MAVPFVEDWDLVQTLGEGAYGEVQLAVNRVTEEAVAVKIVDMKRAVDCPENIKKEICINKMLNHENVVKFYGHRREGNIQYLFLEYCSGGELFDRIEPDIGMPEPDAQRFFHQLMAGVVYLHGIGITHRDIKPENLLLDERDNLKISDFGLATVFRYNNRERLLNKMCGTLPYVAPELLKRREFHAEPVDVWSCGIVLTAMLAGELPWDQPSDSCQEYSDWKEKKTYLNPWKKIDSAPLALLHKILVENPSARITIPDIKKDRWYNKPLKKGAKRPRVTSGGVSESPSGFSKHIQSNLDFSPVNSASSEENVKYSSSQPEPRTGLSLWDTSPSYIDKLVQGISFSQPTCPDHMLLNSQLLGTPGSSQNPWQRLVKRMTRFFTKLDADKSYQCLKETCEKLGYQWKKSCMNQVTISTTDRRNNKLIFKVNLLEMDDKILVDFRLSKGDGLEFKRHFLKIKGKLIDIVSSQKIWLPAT
Assay: Chk1 kinase assay: incorporation of γ-33P ATP into immobilized myelin basic protein
Type: biochemical
Conditions: read-out: Chk1 IC50
How it was run: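 Immobilized-MBP radiometric kinase assay, room temperature for 1 h; ATP 10 μM (Chk1, 10 nM enzyme) or 30 μM (Chk2, 20 nM enzyme) with 33P tracer. Values are IC50s, with Ki derived from them.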

[1] = Table 11, Chk1 only, class symbols A-D

IC50 (Table 11, Chk1 only) [nM] | IC50 [nM] | Structure (SMILES) | other results
≥ 10000 | – | Nc1ncc(-c2cccc(C(=O)NCc3ccccc3)c2)nc1C(=O)N[C@H](Cc1ccc(O)cc1)C(=O)O [Example 611, N-{[3-amino-6-(3-{[(phenylmethyl)amino]carbonyl}phenyl)pyrazin-2-yl]carbonyl}-D-tyrosine] | –
< 50 | – | CNC(=O)c1nc(-c2cccc(CN[C@H]3c4ccccc4C[C@H]3O)c2)cnc1N [Example 453, 3-amino-6-[3-({[(1S,2R)-2-hydroxy-2,3-dihydro-1H-inden-1-yl]amino}methyl)phenyl]-N-methylpyrazine-2-carboxamide] | –
– | 50 to 1000 | CNC(=O)c1nc(-c2cc(C(=O)NCc3ccccc3)ccc2F)cnc1N [Example 368, 3-amino-6-(2-fluoro-5-{[(phenylmethyl)amino]carbonyl}phenyl)-N-methylpyrazine-2-carboxamide] | –
50 to 1000 | – | CNC(=O)c1cc(-c2cccc(CNC3CCc4ccc(Br)cc43)c2)cnc1N (centres unmarked) [Example 519, 2-amino-5-(3-{[(6-bromo-2,3-dihydro-1H-inden-1-yl)amino]methyl}phenyl)-N-methylpyridine-3-carboxamide] | –
1000 to 10000 | – | CNC(=O)c1nc(-c2cc(C(=O)O)cc(C(=O)OC)c2)cnc1N [Example 789, 3-{5-amino-6-[(methylamino)carbonyl]pyrazin-2-yl}-5-[(methyloxy)carbonyl]benzoic acid] | –
< 50 | – | Nc1ncc(-c2cccc(C(=O)N[C@H]3CCc4ccccc43)c2)nc1-c1nnc([C@H]2CCCNC2)[nH]1 [Example 755, 3-(5-amino-6-{5-[(3S)-piperidin-3-yl]-4H-1,2,4-triazol-3-yl}pyrazin-2-yl)-N-[(1S)-2,3-dihydro-1H-inden-1-yl]benzamide] | –
≥ 10000 | – | CN(C)c1ccc(C(=O)NCCNC(=O)c2nc(-c3cccc(C(=O)NCc4ccccc4)c3)cnc2N)cc1 [Example 692, 3-amino-N-[2-({[4-(dimethylamino)phenyl]carbonyl}amino)ethyl]-6-(3-{[(phenylmethyl)amino]carbonyl}phenyl)pyrazine-2-carboxamide] | –
– | 50 to 1000 | CNC(=O)c1nc(-c2cccc(CNCc3cccc(Oc4ccccc4)c3)c2)cnc1N [Example 395, 3-amino-N-methyl-6-{3-[({[3-(phenyloxy)phenyl]methyl}amino)methyl]phenyl}pyrazine-2-carboxamide] | –
– | – | Nc1ncc(-c2cccc(NC(=O)Cc3ccc(F)cc3Cl)c2)nc1C(=O)N[C@H]1CCCNC1 [Example 888, 3-amino-6-(3-{[(2-chloro-4-fluorophenyl)acetyl]amino}phenyl)-N-[(3S)-piperidin-3-yl]pyrazine-2-carboxamide] | IC50 [1]: < 50 nM
1000 to 10000 | – | Nc1ncc(-c2cccc(C(=O)NCc3ccccc3)c2)nc1C(=O)NCCCNC(=O)c1ccco1 [Example 648, 3-amino-N-{3-[(furan-2-ylcarbonyl)amino]propyl}-6-(3-{[(phenylmethyl)amino]carbonyl}phenyl)pyrazine-2-carboxamide] | –
50 to 1000 | – | CNC(=O)c1nc(-c2cccc(CNC3CCc4cc(F)cc(F)c43)c2)cnc1N (centres unmarked) [Example 479, 3-amino-6-(3-{[(5,7-difluoro-2,3-dihydro-1H-inden-1-yl)amino]methyl}phenyl)-N-methylpyrazine-2-carboxamide] | –
1000 to 10000 | – | Nc1ncc(-c2cccc(CN[C@H]3CCc4ccccc43)c2)nc1-c1cnco1 [Example 528, 5-(3-{[(1S)-2,3-dihydro-1H-inden-1-ylamino]methyl}phenyl)-3-(1,3-oxazol-5-yl)pyrazin-2-amine] | –
– | 50 to 1000 | CNC(=O)c1nc(-c2cccc(CNCc3ccccc3-c3ccccc3)c2)cnc1N [Example 383, 3-amino-6-(3-{[(biphenyl-2-ylmethyl)amino]methyl}phenyl)-N-methylpyrazine-2-carboxamide] | –
– | ≥ 10000 | Nc1ncc(-c2cccc(C(=O)NCc3c(F)cccc3Cl)c2)nc1C(=O)NC1CC1 [Example 271, 3-amino-6-[3-({[(2-chloro-6-fluorophenyl)methyl]amino}carbonyl)phenyl]-N-cyclopropylpyrazine-2-carboxamide] | –
50 to 1000 | – | CCN1CC[C@H](NC(=O)c2nc(-c3cccc(C(=O)N[C@@H]4c5ccccc5C[C@@H]4O)c3)cnc2N)C1 [Example 731, 3-amino-N-[(3S)-1-ethylpyrrolidin-3-yl]-6-[3-({[(1R,2S)-2-hydroxy-2,3-dihydro-1H-inden-1-yl]amino}carbonyl)phenyl]pyrazine-2-carboxamide] | –
– | 1000 to 10000 | CC[C@H](NC(=O)c1cccc(-c2cnc(N)c(C(=O)NC)n2)c1)c1ccccc1 [Example 147, 3-amino-N-methyl-6-[3-({[(1S)-1-phenylpropyl]amino}carbonyl)phenyl]pyrazine-2-carboxamide] | –

IC50 (Table 11, Chk1 only) [nM] | IC50 [nM] | Structure (SMILES) | other results
– | – | Nc1ncc(-c2cccc(CNC(=O)c3ccc(I)cc3)c2)nc1-c1nc([C@H]2CCCNC2)n[nH]1 [Example 942, N-{[3-(5-amino-6-{3-[(3S)-piperidin-3-yl]-1H-1,2,4-triazol-5-yl}pyrazin-2-yl)phenyl]methyl}-4-iodobenzamide] | IC50 [1]: < 50 nM
– | 1000 to 10000 | CNC(=O)c1nc(-c2ccc(NC(C)=O)cc2)cnc1N [Example 63, 6-[4-(acetylamino)phenyl]-3-amino-N-methylpyrazine-2-carboxamide] | –
– | 1000 to 10000 | CNC(=O)c1nc(-c2cccc(C(=O)NCc3cccc(N4CCOCC4)c3)c2)cnc1N [Example 344, 3-amino-N-methyl-6-[3-({[(3-morpholin-4-ylphenyl)methyl]amino}carbonyl)phenyl]pyrazine-2-carboxamide] | –
– | – | CN1CCCC(c2n[nH]c(-c3nc(-c4cccc(C(=O)NCc5c(F)cccc5Cl)c4)cnc3N)n2)C1 (centres unmarked) [Example 818, 3-{5-amino-6-[3-(1-methylpiperidin-3-yl)-1H-1,2,4-triazol-5-yl]pyrazin-2-yl}-N-[(2-chloro-6-fluorophenyl)methyl]benzamide] | IC50 [1]: 1000 to 10000 nM
– | – | Nc1cc(-c2n[nH]c(-c3nc(-c4cccc(CN[C@H]5CCc6ccccc65)c4)cnc3N)n2)ccn1 [Example 946, 3-[3-(2-aminopyridin-4-yl)-1H-1,2,4-triazol-5-yl]-5-(3-{[(1S)-2,3-dihydro-1H-inden-1-ylamino]methyl}phenyl)pyrazin-2-amine] | IC50 [1]: < 50 nM
– | 50 to 1000 | CNC(=O)c1nc(-c2cccc(CNC(=O)c3ccc(C(C)C)cc3)c2)cnc1N [Example 374, 3-amino-N-methyl-6-{3-[({[4-(1-methylethyl)phenyl]carbonyl}amino)methyl]phenyl}pyrazine-2-carboxamide] | –
– | < 50 | CNC(=O)c1nc(-c2cccc(C(=O)NCc3ccc4c(c3)OCCO4)c2)cnc1N [Example 205, 3-amino-6-(3-{[(2,3-dihydro-1,4-benzodioxin-6-ylmethyl)amino]carbonyl}phenyl)-N-methylpyrazine-2-carboxamide] | –
– | 50 to 1000 | CNC(=O)c1nc(-c2cccc(C(=O)NCc3cc(Cl)ccc3C)c2)cnc1N [Example 213, 3-amino-6-[3-({[(5-chloro-2-methylphenyl)methyl]amino}carbonyl)phenyl]-N-methylpyrazine-2-carboxamide] | –
– | 1000 to 10000 | CNC(=O)c1nc(-c2cccc(C(=O)NCc3cccc(F)c3F)c2)cnc1N [Example 215, 3-amino-6-[3-({[(2,3-difluorophenyl)methyl]amino}carbonyl)phenyl]-N-methylpyrazine-2-carboxamide] | –
50 to 1000 | – | Nc1ncc(-c2cccc(CO)c2)nc1-c1nc([C@H]2CCCNC2)n[nH]1 [Example 725, [3-(5-amino-6-{3[(3S)-piperidin-3-yl]-1H-1,2,4-triazol-5-yl}pyrazin-2-yl)phenyl]methanol] | –
– | – | CN(C)c1ccc(CNC(=O)c2cccc(-c3cnc(N)c(C(=O)N[C@H]4CCCNC4)n3)c2)cc1 [Example 852, 3-amino-6-{3-[({[4-(dimethylamino)phenyl]methyl}amino)carbonyl]phenyl}-N-[(3S)-piperidin-3-yl]pyrazine-2-carboxamide] | IC50 [1]: < 50 nM
– | 50 to 1000 | CNC(=O)c1nc(-c2cccc(C(=O)NCc3ccc(Cl)cc3Cl)c2)cnc1N [Example 100, 3-amino-6-[3-({[(2,4-dichlorophenyl)methyl]amino}carbonyl)phenyl]-N-methylpyrazine-2-carboxamide] | –
1000 to 10000 | – | NC(=O)c1nc(-c2cccc(S(=O)(=O)N[C@H]3CCc4ccccc43)c2)cnc1N [Example 802, 3-amino-6-(3-{[(1S)-2,3-dihydro-1H-inden-1-ylamino]sulfonyl}phenyl)pyrazine-2-carboxamide] | –
< 50 | – | CNC(=O)c1nc(-c2cccc(CNC3CCc4cc(-c5cccs5)ccc43)c2)cnc1N (centres unmarked) [Example 478, 3-amino-N-methyl-6-[3-({[5-(2-thienyl)-2,3-dihydro-1H-inden-1-yl]amino}methyl)phenyl]pyrazine-2-carboxamide] | –
– | – | Nc1ncc(-c2cccc(NC(=O)c3ccccc3-c3ccc(C(F)(F)F)cc3)c2)nc1C(=O)N[C@H]1CCCNC1 [Example 912, 3-amino-N-[(3S)-piperidin-3-yl]-6-[3-({[4′-(trifluoromethyl)biphenyl-2-yl]carbonyl}amino)phenyl]pyrazine-2-carboxamide] | IC50 [1]: < 50 nM
50 to 1000 | – | Nc1cc(-c2n[nH]c(-c3nc(-c4cccc(CO)c4)cnc3N)n2)ccn1 [Example 798, (3-{5-amino-6-[3-(2-aminopyridin-4-yl)-1H-1,2,4-triazol-5-yl]pyrazin-2-yl}phenyl)methanol] | –
